One experiment has as its target T1, LXRβ (Homo sapiens, UniProt P55055).
T1 construct: expressed in transfected cells; host or cells: HepG2
T1 sequence (P55055 222-460 limits assumed): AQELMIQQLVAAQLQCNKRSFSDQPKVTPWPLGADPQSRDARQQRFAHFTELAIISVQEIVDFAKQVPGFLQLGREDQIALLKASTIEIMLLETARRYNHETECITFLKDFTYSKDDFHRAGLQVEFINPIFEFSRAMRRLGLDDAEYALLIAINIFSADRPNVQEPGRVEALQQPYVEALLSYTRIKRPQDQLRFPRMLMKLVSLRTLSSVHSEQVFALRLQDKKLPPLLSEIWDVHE
Description: Nuclear receptor reporter gene transient transfection (pBIND-hLXRs-LBD) in HepG2 cells, LXRβ. The format is cell-based. How it is done:
(§1) HepG2 cells in logarithmic growth phase were digested, seeded into the white/clear 96-well plate at a density of 5×10^4 cells/well/100 μL until the cells grew to about 90% confluence and in good condition. 0.5 μL liposome (Lipofectamine® 2000) diluted with blank medium to 25 μL per well and incubated at room temperature for 5 min. The corresponding plasmids DNA (nuclear receptor plasmid:Gal4=1:10) were diluted in blank DMEM medium to 25 μL/well (mixing of two plasmids), then mixed evenly with the diluted liposome, and incubated for 20 min at 37° C. The DNA-liposome complex (50 μL per well) was added with the DMEM complete medium (100 μL per well) and mixed thoroughly to obtain a DNA-liposome complex cell culture. The cell medium was discarded, and replaced with the DNA-liposome complex cell culture (150 μL/well) (37° C., 5% CO2). After 6 h, the DNA-liposome complex cell culture medium was discarded, and 200 μL serum-free DMEM medium containing the compound at an appropriate concentration was added to each test well, and cultured for 18-24 h. The cell Luciferase activity was measured by the method as described in the Luciferase Assay System.

In the next experiment the target is T2, PPARα (Homo sapiens, UniProt Q07869).
T2 construct: expressed in transfected cells; host or cells: HepG2
T2 sequence (Q07869 239-466 limits assumed): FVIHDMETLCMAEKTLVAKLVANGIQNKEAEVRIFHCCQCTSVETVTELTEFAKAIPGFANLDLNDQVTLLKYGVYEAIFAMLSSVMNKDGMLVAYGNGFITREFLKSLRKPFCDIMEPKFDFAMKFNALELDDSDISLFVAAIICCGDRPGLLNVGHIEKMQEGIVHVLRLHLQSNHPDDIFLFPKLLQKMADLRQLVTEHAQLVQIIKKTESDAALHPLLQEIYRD
Description: Nuclear receptor reporter gene transient transfection (pBIND-hPPARs-LBD) in HepG2 cells, PPARα. It is filed as cell-based. The conditions noted are these: FIG. 2, result in words. How it is done: as §1

The next experiment deals with T3, PPARδ (Homo sapiens, UniProt Q03181).
T3 construct: expressed in transfected cells; host or cells: HepG2
T3 sequence (Q03181 211-439 limits assumed): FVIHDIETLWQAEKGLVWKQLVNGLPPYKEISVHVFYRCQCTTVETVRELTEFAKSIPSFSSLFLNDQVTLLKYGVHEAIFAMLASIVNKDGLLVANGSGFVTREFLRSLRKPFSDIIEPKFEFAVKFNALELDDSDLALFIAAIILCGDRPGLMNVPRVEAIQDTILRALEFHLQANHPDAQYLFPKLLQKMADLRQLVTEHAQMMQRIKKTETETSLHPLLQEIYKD
In words: Nuclear receptor reporter gene transient transfection (pBIND-hPPARs-LBD) in HepG2 cells, PPARδ. The conditions noted are these: FIG. 2, result in words. It is filed as cell-based. As to the method:
as §1

A further experiment relates to ApoE^−/− mice. In words: Serum lipid levels in ApoE−/− mice. It is filed as in vivo. The conditions noted are these: 5 mg/kg intragastrically, 12 weeks, HFD, versus model group. As to the method:
6-week-old male C57/BL6 ApoE^−/− mice were fed on normal chaw diet for one week. The mice were randomly divided into three groups (control group, high-fat diet model group, and treatment group, 12 mice per group) according to the body weight. From 7-week-old, the high-fat diet model group and the treatment group were fed on a high fat diet (HFD) (0.15% cholesterol and 20% fat), and the control group was fed on normal chow diet. The treatment group (R3) mice were administered intragastrically with TR3 (5 mg/kg). The control group and the high-fat diet model group mice were intragastrically administered with sodium carboxymethylcellulose (CMC-Na) solution. After 12 weeks of administration, all mice were fasted overnight. The blood sample was taken from the retro-orbital plexus, collected in a EP tube, and then centrifuged for 15 min (2500 rpm). The centrifuged serum (upper layer) was transferred to new EP tubes (divided into two aliquots) and stored at −20° C. for further use. The mice were fixed, and the skin was cut open along the midline of the abdomen to the neck. The abdominal cavity was cut open to collect the fresh liver tissue. The Liver tissue was put into 3 freezing tubes, and then immediately put into liquid nitrogen for subsequent detection of liver lipid detection and extraction of RNA and protein. The thorax was cut open to expose the heart. The heart was perfused with 10 ml PBS, and then fixed by perfusion with 4% paraformaldehyde solution until the liver turned white. The fixed liver was taken out and placed in a six-well plate containing 4% paraformaldehyde solution for further fixation. The full-length aorta (from the ascending aorta to the common iliac arteries) was isolated and placed in a six-well plate containing 4% paraformaldehyde solution. The aorta was fixed in 4% paraformaldehyde solution overnight and then stored in 20% sucrose solution at 4° C.
The plasma biochemical indices were measured by using commercially available kits (Biosino Bio-technology and Science Inc., China) and the automatic biochemical analyzer.

Experiment [1] deals with ABCA1. Description: ABCA1 protein expression in liver of ApoE−/− mice. The format is in vivo. The conditions noted are these: FIG. 10. How it is done: (§2) 6-week-old male C57/BL6 ApoE^−/− mice were fed on normal chaw diet for one week. The mice were randomly divided into three groups (control group, high-fat diet model group, and treatment group, 12 mice per group) according to the body weight. From 7-week-old, the high-fat diet model group and the treatment group were fed on a high fat diet (HFD) (0.15% cholesterol and 20% fat), and the control group was fed on normal chow diet. The treatment group (R3) mice were administered intragastrically with TR3 (5 mg/kg). The control group and the high-fat diet model group mice were intragastrically administered with sodium carboxymethylcellulose (CMC-Na) solution. After 12 weeks of administration, all mice were fasted overnight. The blood sample was taken from the retro-orbital plexus, collected in a EP tube, and then centrifuged for 15 min (2500 rpm). The centrifuged serum (upper layer) was transferred to new EP tubes (divided into two aliquots) and stored at −20° C. for further use. […]
(§3) When animal tissues were used to prepare protein samples, the tissues were firstly homogenized and lysed in the RIPA lysis buffer. […] When cell supernatants were used to prepare protein samples, the supernatants were freeze-dried, needed to be extracted using a protein recovery kit (Applygen, Beijing, China), and then analyzed by western-blot.

Another experiment deals with SR-BI. In words: SR-BI protein expression in liver of ApoE−/− mice. It is filed as in vivo. The note with it: FIG. 10. How it is done: as §2, §3
For experiment [2], the system named is ABCA1. In words: ABCA1 expression in RAW 264.7 cells by western-blot, with or without si-AMPK. The format is cell-based, Murine. How it is done: Murine macrophages RAW 264.7 cells were subcultured about every 48 h. When the cells were approximately 100% confluent, the old culture medium was removed, and the cells were washed with PBS and digested with trypsin at an appropriate amount for about 2 min at RT. After the digestion solution was removed, the RPMI-1640 complete medium containing 10% FBS was added immediately to inhibit the activity of trypsin. The cells in the culture flask were repeatedly and gently blown with a curved straw, so that they were completely detached from the bottom of the flask and dispersed into the single-cell suspension. The cells were seeded into a new cell flask at a density of 1:4-1:6, and added with an appropriate amount of the complete medium. The flask was placed in an incubator and cultured at 37° C., 5% CO2. RAW264.7 cells were pretreated with si-AMPK (AMPK siRNA) for 24 h, and then treated with compound TR3 (1 μM) for 24 h. The expression of ABCA1 and AMPK was detected by western-blot.
The effect of TR3 on AMPK was detected by western-blot.

Entries after “also recorded” stand apart in the source; their conditions may differ.

On to `c1ccc2c(c1)CN1CCc3c([nH]c4ccccc34)C1=N2` [TR3, 5,7,8,13-tetrahydroindolo[2′,3′:3,4]pyrido[2,1-b]quinazoline], for which, on LXRβ (HepG2 cells, reporter gene, 18-24 h), the LXRβ max was found to be 1.42. For the same compound, the LXRβ agonist activity result on LXRβ (result in words) is “showed agonist activity; also recorded: simultaneously activated PPARα/γ/δ and LXRα/β to a certain extent”. The “activation of PPARα” value on PPARα was “simultaneously activated PPARα/γ/δ and LXRα/β to a certain extent”. For the same compound, the “activation of PPARδ” value at PPARδ is “simultaneously activated PPARα/γ/δ and LXRα/β to a certain extent”. In the experiment on ApoE^−/− mice, the “level of LDL-C in serum” value is given as “greatly decreased”, the “level of TC in serum” value is “greatly decreased” and the “level of TG in serum” value is on record as “greatly decreased”. For the same compound, the “expression of ABCA1 in the liver” value in the experiment with ABCA1 [1] is “increased”. In addition, in the experiment with SR-BI, the “expression of SR-BI in the liver” value was “increased”. The “up-regulation of ABCA1 expression after addition of si-AMPK” value in the experiment on ABCA1 [2] (RAW 264.7 cells pretreated with si-AMPK 24 h, then 1 μM for 24 h) is “inhibited by the addition of interfering RNA (si-AMPK)”. Also, the “expression of ABCA1” value in the experiment with ABCA1 [2] (RAW 264.7 cells, 1 μM, western-blot, FIG. 11) was “significantly up-regulated”.

The values are drawn from patent US12590093B2, “Indolo[2′,3′:3,4]pyrido[2,1-b]quinazoline compound and use thereof” (INSTITUTE OF MEDICINAL BIOTECHNOLOGY CHINESE ACADEMY OF …, priority 2019, dated 2026).
